One test addresses T1, EPR3 (Lotus japonicus, UniProt D3KU53).
T1 construct: gene LYS3; ectodomain (M1, M2, LysM3, stem), residues 33-232; N-terminal gp67 secretion signal, C-terminal 6xHis tag; secreted from Sf9 insect cells (baculovirus); glycosylated or PNGase F-treated; monomer
T1 sequence (D3KU53 33-232): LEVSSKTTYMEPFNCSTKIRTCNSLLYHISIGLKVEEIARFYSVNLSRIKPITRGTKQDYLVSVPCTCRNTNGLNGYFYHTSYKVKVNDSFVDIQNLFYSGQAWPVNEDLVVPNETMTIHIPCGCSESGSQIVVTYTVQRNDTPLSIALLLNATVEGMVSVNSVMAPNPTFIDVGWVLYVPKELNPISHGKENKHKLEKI
The test is described as follows: microscale thermophoresis. The format is binding. The settings on record: labelled EPR3 (Blue NHS, 100 nM); 50 mM K2PO4 pH 7.8, 500 mM NaCl, 0.05% Tween-20; 25 °C; n = 3.

For test [1], the target named is T2, Lotus japonicus exopolysaccharide receptor 3 (EPR3) ectodomain (Lotus japonicus ecotype Gifu, N-linked oligosaccharides (glycosylated)).
T2 construct: EPR3 (exopolysaccharide receptor 3), Lotus japonicus ecotype Gifu, ectodomain, residues 33-232; Codon-optimised for insect cells, vector pOET2; also called Lotus EPR3; glycosylated EPR3; source: Sf9 (baculovirus), secreted into the medium, purified (HisTrap excel, HisTrap HP, Superdex 75)
T2 chain: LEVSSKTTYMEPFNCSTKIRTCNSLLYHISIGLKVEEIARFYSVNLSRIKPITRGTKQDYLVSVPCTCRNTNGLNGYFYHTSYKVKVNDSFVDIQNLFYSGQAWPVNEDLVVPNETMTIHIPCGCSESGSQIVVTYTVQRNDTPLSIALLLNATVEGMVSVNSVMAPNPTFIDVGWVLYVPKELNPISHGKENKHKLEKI
The test is described as follows: SEC; analytic Superdex 75 Increase 3.2/300 column; mobility shift of the complex. The settings on record: both partners purified.

Molecule `O=C(O)[C@H]1O[C@@H](O[C@H]2[C@H](O)[C@@H](O)[C@@H](O[C@H]3[C@H](O)[C@@H](O)[C@H](OC[C@H]4O[C@@H](OC[C@H]5O[C@@H](O[C@H]6[C@H](O)[C@@H](O)[C@H](O[C@H]7[C@H](O)[C@@H](O)[C@H](O[C@H]8[C@@H](O)[C@@H](CO)OC(O)[C@@H]8O)O[C@@H]7CO)O[C@@H]6CO)[C@H](O)[C@@H](O)[C@@H]5O)[C@H](O)[C@@H](O)[C@@H]4O)O[C@@H]3CO)O[C@@H]2C(=O)O)[C@H](O)[C@@H]1O` (some centres unmarked) [deOAc-EPS] returned a Kd at EPR3 of 31.3 ± 11.7 µM.

B1: Nb186 (VHH)
VHH: QVQLVESGGGLVQPGGSLRLSCAASGSIFSIDYMGWYRQAPGKERELVAIKTSGGTTHYADSVKGRFTISRDNAKNTVYLQMNSLKPDDTAVYYCNARVYFGDRDYWGQGTQVTVSS
notes: llama (Lama glama) nanobody selected by phage display against EPR3; Cloned into pET22b(+) for bacterial expression; also called nanobody Nb186; source: E. coli LOBSTR, purified (Ni Sepharose 6 FF, Superdex 75)
Regarding B1, the binding result in test [1] is “binds”.

Values taken from publication PMC7392887, “Structural signatures in EPR3 define a unique class of plant carbohydrate receptors” (Nature Communications, 2020).
